Results published in patent publication US8952024B2, “Herbicidal pyrimidone derivatives” (E I du Pont de Nemours and Company, priority 2009, dated 2015).

Tests used:
Assay type in all cases: in vivo
[1] = tested on: morningglory (Ipomoea spp.); test: Test A pre-/postemergence plant response
How it was run: (§1)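 Pre: directed soil spray on seeded loam/sand blend. Post: same formulation (non-phytotoxic solvent + surfactant) on 2–10 cm plants, 1–2 leaf stage. Greenhouse ~10 d; visual injury score 0–100 vs untreated.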

[2] = tested on: giant foxtail (Setaria faberii); test: Test A pre-/postemergence plant response
How it was run: as §1

[3] = tested on: pigweed (Amaranthus retroflexus); test: Test A pre-/postemergence plant response
How it was run: as §1

[4] = tested on: large crabgrass (Digitaria sanguinalis); test: Test A pre-/postemergence plant response
How it was run: as §1

[5] = tested on: corn (Zea mays); test: Test A pre-/postemergence plant response
How it was run: as §1

[6] = tested on: velvetleaf (Abutilon theophrasti); test: Test A pre-/postemergence plant response
How it was run: as §1

[7] = tested on: wheat (Triticum aestivum); test: Test A pre-/postemergence plant response
How it was run: as §1

[8] = tested on: barnyardgrass (Echinochloa crus-galli); test: Test A pre-/postemergence plant response
How it was run: as §1

[9] = tested on: bermudagrass (Cynodon dactylon); test: Test B pre-/postemergence plant response
How it was run: (§2)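 Seeds sown in loam–sand blend were treated preemergence, and plants at 2–18 cm (1- to 4-leaf stage) in peat-based medium were treated postemergence; compounds were formulated in non-phytotoxic solvent with surfactant. After 13–15 days in greenhouse, response was visually rated against controls, 0 (no effect) to 100 (complete control).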

[10] = tested on: wheat (Triticum aestivum); test: Test B pre-/postemergence plant response
How it was run: as §2

[11] = tested on: cocklebur (Xanthium strumarium); test: Test B pre-/postemergence plant response
How it was run: as §2

[12] = Postemergence, 125 g ai/ha, 0 to 100 scale where 0 is no effect and 100 is complete control
[13] = Postemergence, 500 g ai/ha, visual injury, 0 to 100 scale (0 no effect, 100 complete control), approx. ten days
[14] = Preemergence, 125 g ai/ha, 0 to 100 scale, 0 = no effect, 100 = complete control
[15] = Preemergence, 500 g ai/ha, 0 to 100 scale, 0 = no effect, 100 = complete control
[16] = Postemergence, 31 g ai/ha, 0 to 100 scale (0 no effect, 100 complete control)
[17] = Postemergence, 125 g ai/ha, scale 0 to 100 (0 no effect, 100 complete control)
[18] = Postemergence, 250 g ai/ha, scale 0 to 100 (0 no effect, 100 complete control), 13 to 15 days
[19] = Postemergence, 125 g ai/ha, visual injury, 0 to 100 scale (0 no effect, 100 complete control), approx. ten days
[20] = Postemergence, 500 g ai/ha, 0 to 100 scale, 0 = no effect, 100 = complete control, approx. ten days
[21] = Preemergence, 500 g ai/ha, visual injury, 0 to 100 scale (0 no effect, 100 complete control), approx. ten days
[22] = 250 g ai/ha, Preemergence, 0 to 100 scale
[23] = Postemergence, 31 g ai/ha, scale 0 to 100 (0 no effect, 100 complete control)
[24] = Postemergence, 62 g ai/ha, scale 0 (no effect) to 100 (complete control), 13 to 15 days
[25] = Postemergence, 250 g ai/ha, scale 0 to 100
[26] = Preemergence, 31 g ai/ha, scale 0 to 100 (0 no effect, 100 complete control)
[27] = Preemergence, 62 g ai/ha, scale 0 to 100, 0 no effect, 100 complete control
[28] = Preemergence, 125 g ai/ha, 0 to 100 scale
[29] = Postemergence, 125 g ai/ha, visual rating after 13 to 15 days, scale 0 (no effect) to 100 (complete control)

## Cc1ccc(-n2c(-c3cc(F)cc(F)c3)ncc(C(=O)C3=C(O)CCCC3=O)c2=O)cc1 [Compound 162]
[1]; [12]
  Plant response rating, Morningglory: 100
[1]; [13]
  Morningglory plant response rating: 100
[1]; [14]
  Plant response rating, Morningglory: 0
[1]; [15]
  Plant response rating, Morningglory: 80
[2]; [12]
  Plant response rating, Foxtail, Giant: 70
[2]; [13]
  Foxtail, Giant plant response rating: 100
[2]; [14]
  Plant response rating, Foxtail, Giant: 30
[2]; [15]
  Plant response rating, Foxtail, Giant: 90
[3]; [12]
  Plant response rating, Pigweed: 100
[3]; [13]
  Pigweed plant response rating: 100
[3]; [14]
  Plant response rating, Pigweed: 100
[3]; [15]
  Plant response rating, Pigweed: 100
[4]; [12]
  Plant response rating, Crabgrass, Large: 80
[4]; [13]
  Crabgrass, Large plant response rating: 100
[4]; [14]
  Plant response rating, Crabgrass, Large: 90
[4]; [15]
  Plant response rating, Crabgrass, Large: 100
[5]; [12]
  Plant response rating, Corn: 0
[5]; [13]
  Corn plant response rating: 50
[5]; [14]
  Plant response rating, Corn: 0
[5]; [15]
  Plant response rating, Corn: 0
[6]; [12]
  Plant response rating, Velvetleaf: 100
[6]; [13]
  Velvetleaf plant response rating: 100
[6]; [14]
  Plant response rating, Velvetleaf: 60
[6]; [15]
  Plant response rating, Velvetleaf: 100
[7]; [12]
  Plant response rating, Wheat: 30
[7]; [13]
  Wheat plant response rating: 50
[7]; [14]
  Plant response rating, Wheat: 0
[7]; [15]
  Plant response rating, Wheat: 50
[8]; [12]
  Plant response rating, Barnyardgrass: 100
[8]; [13]
  Barnyardgrass plant response rating: 100
[8]; [14]
  Plant response rating, Barnyardgrass: 10
[8]; [15]
  Plant response rating, Barnyardgrass: 100
[9]; 62 g ai/ha, postemergence, 0 is no effect, 100 is complete control, 13 to 15 days
  Bermudagrass plant response rating (0 to 100 scale): 95
[9]; [16]
  Plant response rating, Bermudagrass: 85
[9]; [17]
  Plant response rating, Bermudagrass: 100
[9]; [18]
  Plant response rating, Bermudagrass: 100
[10]; [16]
  Plant response rating, Wheat: 10
[10]; [17]
  Plant response rating, Wheat: 35
[10]; [18]
  Plant response rating, Wheat: 40
[11]; [16]
  Plant response rating, Cocklebur: 100
[11]; [17]
  Plant response rating, Cocklebur: 100
[11]; [18]
  Plant response rating, Cocklebur: 100

## Cc1cccc(-n2c(-c3ccccc3)ncc(C(=O)C3=C(O)CCCC3=O)c2=O)c1C [Compound 27]
[1]; [19]
  Morningglory plant response rating: 60
[1]; [20]
  Plant response rating, Morningglory: 70
[1]; [14]
  Plant response rating, Morningglory: 20
[1]; [21]
  Plant response rating, Morningglory: 80
[2]; [19]
  Foxtail, Giant plant response rating: 80
[2]; [20]
  Plant response rating, Foxtail, Giant: 90
[2]; [14]
  Plant response rating, Foxtail, Giant: 30
[2]; [21]
  Plant response rating, Foxtail, Giant: 90
[3]; [19]
  Pigweed plant response rating: 100
[3]; [20]
  Plant response rating, Pigweed: 100
[3]; [14]
  Plant response rating, Pigweed: 70
[3]; [21]
  Plant response rating, Pigweed: 90
[4]; [19]
  Crabgrass, Large plant response rating: 70
[4]; [20]
  Plant response rating, Crabgrass, Large: 100
[4]; [14]
  Plant response rating, Crabgrass, Large: 30
[4]; [21]
  Plant response rating, Crabgrass, Large: 90
[5]; [19]
  Corn plant response rating: 0
[5]; [20]
  Plant response rating, Corn: 30
[5]; [14]
  Plant response rating, Corn: 0
[5]; [21]
  Plant response rating, Corn: 0
[6]; [19]
  Velvetleaf plant response rating: 100
[6]; [20]
  Plant response rating, Velvetleaf: 100
[6]; [14]
  Plant response rating, Velvetleaf: 60
[6]; [21]
  Plant response rating, Velvetleaf: 100
[7]; [19]
  Wheat plant response rating: 0
[7]; [20]
  Plant response rating, Wheat: 0
[7]; [14]
  Plant response rating, Wheat: 0
[7]; [21]
  Plant response rating, Wheat: 0
[8]; [19]
  Barnyardgrass plant response rating: 50
[8]; [20]
  Plant response rating, Barnyardgrass: 90
[8]; [14]
  Plant response rating, Barnyardgrass: 10
[8]; [21]
  Plant response rating, Barnyardgrass: 80
[9]; [22]
  Plant response rating, Bermudagrass: 100
[9]; [23]
  Plant response rating, Bermudagrass: 70
[9]; [24]
  Plant response rating, Bermudagrass: 90
[9]; Postemergence, 125 g ai/ha, scale 0 to 100 (0 no effect, 100 complete control), 13 to 15 days
  Plant response rating, Bermudagrass: 100
[9]; [25]
  Bermudagrass plant response rating: 100
[9]; [26]
  Plant response rating, Bermudagrass: 70
[9]; [27]
  Plant response rating, Bermudagrass: 98
[9]; [28]
  Bermudagrass plant response rating: 100
[10]; [22]
  Plant response rating, Wheat: 5
[10]; [23]
  Plant response rating, Wheat: 0
[10]; [24]
  Plant response rating, Wheat: 5
[10]; [29]
  Plant response rating, Wheat: 10
[10]; [25]
  Wheat plant response rating: 30
[10]; [26]
  Plant response rating, Wheat: 0
[10]; [27]
  Plant response rating, Wheat: 0
[10]; [28]
  Wheat plant response rating: 0
[11]; [22]
  Plant response rating, Cocklebur: 90
[11]; [23]
  Plant response rating, Cocklebur: 90
[11]; [24]
  Plant response rating, Cocklebur: 95
[11]; [29]
  Plant response rating, Cocklebur: 95
[11]; [25]
  Cocklebur plant response rating: 98
[11]; [26]
  Plant response rating, Cocklebur: 0
[11]; [27]
  Plant response rating, Cocklebur: 85
[11]; [28]
  Cocklebur plant response rating: 85
